In ChEMBL document CHEMBL1201862, “PubChem BioAssay data set” (2004):
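Assay format: 96-well plates, 48-hour exposure. GI50: concentration for 50% inhibition of growth.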 Active and inactive are the calls of the source. Cut-off read from the data, not from the text of the source: active = GI50 up to about 1.1 µM and inactive = higher.

Columns and labels:
Assay in all cases: NCI-60 cell line screen, 48 h
Malme-3M = tested on: Malme-3M
EKVX = tested on: EKVX
CAKI-1 = tested on: CAKI-1
SW-620 = tested on: SW-620
MDA-MB-435 = tested on: MDA-MB-435
K562 = tested on: K562
NCI-H460 = tested on: NCI-H460
NCI/ADR-RES = tested on: NCI/ADR-RES
A498 = tested on: A498
MDA-MB-231 = tested on: MDA-MB-231
Hs-578T = tested on: Hs-578T
HL-60 = tested on: HL-60
NCI-H23 = tested on: NCI-H23
RPMI-8226 = tested on: RPMI-8226
OVCAR-8 = tested on: OVCAR-8
UACC-62 = tested on: UACC-62
KM12 = tested on: KM12
M14 = tested on: M14
MOLT-4 = tested on: MOLT-4
A549 = tested on: A549
BT-549 = tested on: BT-549
DU-145 = tested on: DU-145
RXF 393 = tested on: RXF 393
HOP-92 = tested on: HOP-92
TK-10 = tested on: TK-10
COLO 205 = tested on: COLO 205
HCT-15 = tested on: HCT-15
OVCAR-4 = tested on: OVCAR-4
786-0 = tested on: 786-0
CCRF-CEM = tested on: CCRF-CEM
OVCAR-3 = tested on: OVCAR-3
UO-31 = tested on: UO-31
SN12C = tested on: SN12C
U-251 = tested on: U-251
MDA-N = tested on: MDA-N
UACC-257 = tested on: UACC-257
LOX IMVI = tested on: LOX IMVI
OVCAR-5 = tested on: OVCAR-5
PC-3 = tested on: PC-3
NCI-H226 = tested on: NCI-H226
SF-268 = tested on: SF-268
NCI-H522 = tested on: NCI-H522
IGROV-1 = tested on: IGROV-1
SK-MEL-28 = tested on: SK-MEL-28
MCF7 = tested on: MCF7
SK-MEL-2 = tested on: SK-MEL-2
HCT-116 = tested on: HCT-116
SK-MEL-5 = tested on: SK-MEL-5
HOP-62 = tested on: HOP-62
ACHN = tested on: ACHN
SF-295 = tested on: SF-295
HT-29 = tested on: HT-29
SNB-19 = tested on: SNB-19
SR = tested on: SR
SK-OV-3 = tested on: SK-OV-3
SNB-75 = tested on: SNB-75
T47D = tested on: T47D
HCC 2998 = tested on: HCC 2998
SF-539 = tested on: SF-539

In the case of `Oc1nc(S)nc2c1C(c1ccc(Cl)cc1)c1c(O)nc(S)nc1O2`, the GI50 (Malme-3M) is reported as > 100 µM (inactive), the GI50 (EKVX) is reported as > 100 µM (inactive) and the GI50 (CAKI-1) is reported as 25.8 µM (inactive). For the same compound, the GI50 (SW-620) was > 100 µM (inactive), the GI50 (MDA-MB-435) was > 100 µM (inactive) and the GI50 (K562) was > 100 µM (inactive). For the same compound, the GI50 (NCI-H460) was > 100 µM (inactive), the GI50 (NCI/ADR-RES) was > 100 µM (inactive) and the GI50 (A498) was > 100 µM (inactive). For the same compound, the GI50 (MDA-MB-231) was > 100 µM (inactive), the GI50 (Hs-578T) was > 100 µM (inactive) and the GI50 (HL-60) was > 100 µM (inactive). For the same compound, the GI50 (NCI-H23) was > 100 µM (inactive), the GI50 (RPMI-8226) was > 100 µM (inactive) and the GI50 (OVCAR-8) was > 100 µM (inactive). For the same compound, the GI50 (UACC-62) was > 100 µM (inactive), the GI50 (KM12) was > 100 µM (inactive) and the GI50 (M14) was > 100 µM (inactive). The GI50 (MOLT-4) was > 100 µM (inactive), the GI50 (A549) was > 100 µM (inactive) and the GI50 (BT-549) was > 100 µM (inactive). For the same compound, the GI50 (DU-145) was > 100 µM (inactive), the GI50 (RXF 393) was 0.514 µM (active) and the GI50 (HOP-92) was > 100 µM (inactive). For the same compound, the GI50 (TK-10) was > 100 µM (inactive), the GI50 (COLO 205) was > 100 µM (inactive) and the GI50 (HCT-15) was greater than 100 µM. The GI50 (OVCAR-4) was > 100 µM (inactive), the GI50 (786-0) was > 100 µM (inactive) and the GI50 (CCRF-CEM) was > 100 µM (inactive). The GI50 (OVCAR-3) was > 100 µM (inactive), the GI50 (UO-31) was > 100 µM (inactive) and the GI50 (SN12C) was > 100 µM (inactive). The GI50 (U-251) was > 100 µM (inactive), the GI50 (MDA-N) was > 100 µM (inactive) and the GI50 (UACC-257) was > 100 µM (inactive). For the same compound, the GI50 (LOX IMVI) was > 100 µM (inactive), the GI50 (OVCAR-5) was > 100 µM (inactive) and the GI50 (PC-3) was > 100 µM (inactive). The GI50 (NCI-H226) was > 100 µM (inactive), the GI50 (SF-268) was 25.7 µM (inactive) and the GI50 (NCI-H522) was > 100 µM (inactive). For the same compound, the GI50 (IGROV-1) was > 100 µM (inactive), the GI50 (SK-MEL-28) was > 100 µM (inactive) and the GI50 (MCF7) was > 100 µM (inactive). The GI50 (SK-MEL-2) was > 100 µM (inactive), the GI50 (HCT-116) was > 100 µM (inactive) and the GI50 (SK-MEL-5) was > 100 µM (inactive). For the same compound, the GI50 (HOP-62) was > 100 µM (inactive), the GI50 (ACHN) was > 100 µM (inactive) and the GI50 (SF-295) was > 100 µM (inactive). For the same compound, the GI50 (HT-29) was > 100 µM (inactive) and the GI50 (SNB-19) was > 100 µM (inactive).

With `Cc1cc2c(cc1Cl)SSc1cc(Cl)c(C)cc1S(=O)(=O)Nc1nc(N)nn1C(O)n1nc(N)nc1NS2(=O)=O` the GI50 (Malme-3M) was > 10 µM (inactive), the GI50 (EKVX) was > 10 µM (inactive) and the GI50 (CAKI-1) was > 10 µM (inactive). For the same compound, the GI50 (SW-620) was > 10 µM (inactive), the GI50 (K562) was > 10 µM (inactive) and the GI50 (NCI-H460) was > 10 µM (inactive). The GI50 (SR) was > 10 µM (inactive), the GI50 (NCI/ADR-RES) was > 10 µM (inactive) and the GI50 (A498) was > 10 µM (inactive). The GI50 (SK-OV-3) was > 10 µM (inactive), the GI50 (Hs-578T) was > 10 µM (inactive) and the GI50 (HL-60) was > 10 µM (inactive). For the same compound, the GI50 (NCI-H23) was > 10 µM (inactive), the GI50 (RPMI-8226) was > 10 µM (inactive) and the GI50 (OVCAR-8) was > 10 µM (inactive). For the same compound, the GI50 (KM12) was > 10 µM (inactive), the GI50 (M14) was > 10 µM (inactive) and the GI50 (MOLT-4) was > 10 µM (inactive). For the same compound, the GI50 (A549) was > 10 µM (inactive), the GI50 (BT-549) was > 10 µM (inactive) and the GI50 (SNB-75) was > 10 µM (inactive). The GI50 (DU-145) was > 10 µM (inactive), the GI50 (T47D) was > 10 µM (inactive) and the GI50 (RXF 393) was > 10 µM (inactive). For the same compound, the GI50 (HOP-92) was > 10 µM (inactive), the GI50 (TK-10) was > 10 µM (inactive) and the GI50 (COLO 205) was > 10 µM (inactive). The GI50 (HCT-15) was greater than 10 µM, the GI50 (HCC 2998) was > 10 µM (inactive) and the GI50 (OVCAR-4) was > 10 µM (inactive). For the same compound, the GI50 (786-0) was > 10 µM (inactive), the GI50 (CCRF-CEM) was > 10 µM (inactive) and the GI50 (OVCAR-3) was > 10 µM (inactive). For the same compound, the GI50 (UO-31) was > 10 µM (inactive), the GI50 (SN12C) was > 10 µM (inactive) and the GI50 (U-251) was > 10 µM (inactive). The GI50 (MDA-N) was > 10 µM (inactive), the GI50 (UACC-257) was > 10 µM (inactive) and the GI50 (LOX IMVI) was > 10 µM (inactive). For the same compound, the GI50 (OVCAR-5) was > 10 µM (inactive), the GI50 (PC-3) was > 10 µM (inactive) and the GI50 (NCI-H226) was > 10 µM (inactive). For the same compound, the GI50 (SF-268) was > 10 µM (inactive), the GI50 (NCI-H522) was > 10 µM (inactive) and the GI50 (IGROV-1) was > 10 µM (inactive). For the same compound, the GI50 (SK-MEL-28) was > 10 µM (inactive), the GI50 (MCF7) was > 10 µM (inactive) and the GI50 (SK-MEL-2) was > 10 µM (inactive). The GI50 (SF-539) was > 10 µM (inactive), the GI50 (HCT-116) was > 10 µM (inactive) and the GI50 (SK-MEL-5) was > 10 µM (inactive). For the same compound, the GI50 (HOP-62) was > 10 µM (inactive), the GI50 (ACHN) was > 10 µM (inactive) and the GI50 (SF-295) was > 10 µM (inactive). The GI50 (HT-29) was > 10 µM (inactive) and the GI50 (SNB-19) was > 10 µM (inactive).
